Results published in article PMC10045593, “Ubiquitin-Specific Proteases as Potential Therapeutic Targets in Bladder Cancer—In Vitro Evaluation of Degrasyn and PR-619 Activity Using Human and Canine Models” (Biomedicines, 2023).
Values joined by “and” are separate entries in the source; they are usually repeats but may differ in a detail not shown here. Equal values may be shown once.

Assays:
[1] = test system: K9TCC-PU-NK cell line; experiment: Caspase 3/7 activation flow cytometry assay; format: cell-based, canine; settings: 24 h
Method: (§1) Subsequently, to assess caspases 3/7 activation, the cells were incubated with medium alone or with increasing concentrations of compounds (Degrasyn, PR-619) in conditions similar to the previous test. Following cell collection, the cells were twice PBS-washed and stained in accordance with the manufacturer’s instructions. For active caspase 3/7 detection, CellEventCaspase-3/7 Green Detection Reagent Solution was added to the samples. The cells were then suspended 1 more time in the wash buffer after being washed twice. For flow cytometric analysis, a flow cytometers (FACS Calibur, Becton Dickinson, Biosciences, San Jose, CA, USA; CytoFlex, Beckman Coulter, CA, USA) were used, and CellQuest 3.lf (Becton Dickinson, San Jose, CA, USA) and CytExpert 2.4 (Beckman Coulter, CA, USA) software were used for data analysis. The presented results were obtained from three independent experiments.

[2] = test system: RDSVS-TCC1 cell line; experiment: Caspase 3/7 activation flow cytometry assay; format: cell-based, canine; settings: RDSVS-TCC1, 24 h
Method: as §1

[3] = test system: SV-HUC-1 cell line; experiment: Caspase 3/7 activation flow cytometry assay; format: cell-based, human; settings: SV-HUC-1, 24 h
Method: as §1

[4] = test system: T24 cell line; experiment: Caspase 3/7 activation flow cytometry assay; format: cell-based, human; settings: T24, 24 h
Method: as §1

[5] = test system: K9TCC-PU-NK cell line; experiment: MTT cell proliferation assay; format: cell-based, canine; settings: highest concentration used (20 μM)
Method: (§2) Cell proliferation was determined using the 3-(4,5-dimethylthiazol-2-yl)-2,5-diphenyltetrazolium bromide (MTT) assay (Sigma-Aldrich, Steinheim, Germany). Cells were plated at a density of 1 × 10^5 cells per mL in 96-well plates (Thermo Fisher Scientific, Roskilde, Denmark) and allowed to attach overnight. Subsequently, Degrasyn and PR-619 were added in increasing concentrations (0.6, 1.25, 2.5, 5, 10, and 20 μM). After incubation for 24, 48, and 72 h with either the compounds or in the medium alone, 20 μL of MTT solution (5 mg/mL) was added to each well. After an additional 4 h, 80 μL of the lysis buffer (225 mL DMF, 67.5 g SDS, and 275 mL distilled water) was added to each well. After dissolving the content, the absorbance was measured at a […] of 570 nm using a spectrophotometric microplate reader Spark (Tecan). The values were obtained from 3 independent experiments (different plates, different days). Based on the results, the concentration that inhibited 50% of the cell proliferation (IC50) was calculated for all incubation intervals.

[6] = test system: RDSVS-TCC1 cell line; experiment: MTT cell proliferation assay; format: cell-based, canine; settings: highest concentration used (20 μM)
Method: as §2

[7] = test system: Bcl-2 in all BC cell lines (T24, K9TCC-PU-NK, RDSVS-TCC-1); experiment: Western blot for Bcl-2 expression; format: cell-based, human and canine; settings: 24 h
Method: (§3) Western blot was performed to assess the expression of USP5, USP9X, and USP14 in analyzed cell lines. After 24 h of incubation with increasing concentrations of Degrasyn and PR-619, the expression of proteins involved in apoptosis (Bcl-2 and Bcl-xl) and a marker of DNA damage (γH2A.X) was also evaluated. Briefly, cells were rinsed with cold phosphate-buffered saline (PBS), suspended in lysis buffer (50 mM Tris-HCl pH 7.5, 100 mM NaCl, 1% NP-40, protease inhibitors set), and incubated for 20 min on ice. Subsequently, after centrifuging at 10,000 rpm at 4 °C for 12 min, sodium dodecyl sulfate (SDS) sample buffer was added to […]. After boiling for 5 min at 95 °C, the samples were subjected to SDS-polyacrylamide gel electrophoresis on 8–15% gel. For USP5, USP9X, USP14, γH2A.X, Bcl-2, and Bcl-xl expression analysis, transfers onto nitrocellulose membranes were performed using a Semidry Transfer Cell or wet transfer method (Bio-Rad, Hercules, CA, USA). After transfer, the membranes were blocked with 1% casein in TBS (or 3% BSA for γH2Ax) at room temperature for 1 h. […]

[8] = test system: γH2AX in canine BC cell lines (K9TCC-PU-NK, RDSVS-TCC1); experiment: Western blot for γH2AX (DNA damage); format: cell-based; settings: 24 h
Method: as §3

[9] = 5 μM (highest concentration of Degrasyn)
[10] = 10 μM (highest concentration of PR-619)
[11] = 2.5 μM (highest concentration of Degrasyn)
[12] = 5 μM (highest concentration of PR-619)

## N#CSc1cc(SC#N)c(N)nc1N [PR-619]
[1]; 2.5 μM
  percentage of cells with active caspase 3/7: 6.4%
[1]; [9]
  percentage of cells with active caspase 3/7: 9.9%
[1]; [10]
  percentage of cells with active caspase 3/7: 13.3 ± 3.3% and 13.2%
[2]; 2.5 μM
  percentage of cells with active caspase 3/7: 6.1%
[2]; [9]
  percentage of cells with active caspase 3/7: 12.9%
[2]; [10]
  percentage of cells with active caspase 3/7: 16.2 ± 7.4% and 16.2%
[3]; 1.25 μM
  percentage of cells with active caspase 3/7: 8.9%
[3]; [11]
  percentage of cells with active caspase 3/7: 10.6%
[3]; [12]
  percentage of cells with active caspase 3/7: 19.6 ± 1.8% and 19.6%
[4]; 1.25 μM
  percentage of cells with active caspase 3/7: 10.2%
[4]; [11]
  percentage of cells with active caspase 3/7: 13.4%
[4]; [12]
  percentage of cells with active caspase 3/7: 16.1 ± 4.9% and 16.1%
[5]
  cells killed at the highest concentration: ~100%
[6]
  cells killed at the highest concentration: ~100%
[7]; 10 μM
  expression of Bcl-2 protein: slightly decreased
[8]; highest concentrations of the drug
  amount of γH2AX: only a slight visible increase

## CCC[C@H](NC(=O)/C(C#N)=C/c1cccc(Br)n1)c1ccccc1 [Degrasyn]
[1]; 1.25 μM
  percentage of cells with active caspase 3/7: 5.4%
[1]; 2.5 μM
  percentage of cells with active caspase 3/7: 7.1%
[1]; [9]
  percentage of cells with active caspase 3/7: 11.9 ± 1.8% and 11.9%
[2]; 1.25 μM
  percentage of cells with active caspase 3/7: 5.9%
[2]; 2.5 μM
  percentage of cells with active caspase 3/7: 11.7%
[2]; [9]
  percentage of cells with active caspase 3/7: 22.5 ± 4.3% and 22.5%
[3]; 0.6 μM
  percentage of cells with active caspase 3/7: 5.8%
[3]; 1.25 μM
  percentage of cells with active caspase 3/7: 7.6%
[3]; [11]
  percentage of cells with active caspase 3/7: 22.4 ± 5.4% and 22.4%
[4]; 0.6 μM
  percentage of cells with active caspase 3/7: 12.5%
[4]; 1.25 μM
  percentage of cells with active caspase 3/7: 16.1%
[4]; [11]
  percentage of cells with active caspase 3/7: 36.6 ± 0.7% and 36.6%
[5]
  cells killed at the highest concentration: ~100%
[6]
  cells killed at the highest concentration: ~100%
[7]; 5 μM
  expression of Bcl-2 protein: slightly decreased
[8]; only 5 µM
  expression of γH2AX: high expression
